Data from ChEMBL document CHEMBL5346980 (J Med Chem, 2023).

What was measured:
Carbonic anhydrase 2 = Carbonic anhydrase 2 (Homo sapiens, UniProt P00918); test: Inhibition of recombinant human carbonic anhydrase 2 incubated for 15 mins prior to testing by phenol red based stopped-flow CO2 hydration assay
Carbonic anhydrase 1 = Carbonic anhydrase 1 (Homo sapiens, UniProt P00915); test: Inhibition of recombinant human carbonic anhydrase 1 incubated for 15 mins prior to testing by phenol red based stopped-flow CO2 hydration assay
[1] = target: T1, Vascular endothelial growth factor receptor 2 (Homo sapiens, UniProt P35968)
[2] = target: T1, Vascular endothelial growth factor receptor 2; remark: listed apart in the source
Description: Inhibition of human VEGFR-2 by ELISA

HepG2 = test: cells; conditions: Homo sapiens
Description: Cytotoxicity against human HepG2 cells by MTT assay

Carbonic anhydrase 1, sequence (P00915 whole entry): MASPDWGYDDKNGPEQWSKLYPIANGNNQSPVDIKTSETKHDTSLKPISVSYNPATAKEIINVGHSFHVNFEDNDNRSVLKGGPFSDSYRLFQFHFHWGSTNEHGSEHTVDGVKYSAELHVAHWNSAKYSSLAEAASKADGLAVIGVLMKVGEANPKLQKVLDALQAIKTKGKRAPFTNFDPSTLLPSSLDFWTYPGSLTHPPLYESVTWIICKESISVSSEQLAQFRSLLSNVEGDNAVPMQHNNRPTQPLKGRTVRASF
T1 sequence (P35968 whole entry): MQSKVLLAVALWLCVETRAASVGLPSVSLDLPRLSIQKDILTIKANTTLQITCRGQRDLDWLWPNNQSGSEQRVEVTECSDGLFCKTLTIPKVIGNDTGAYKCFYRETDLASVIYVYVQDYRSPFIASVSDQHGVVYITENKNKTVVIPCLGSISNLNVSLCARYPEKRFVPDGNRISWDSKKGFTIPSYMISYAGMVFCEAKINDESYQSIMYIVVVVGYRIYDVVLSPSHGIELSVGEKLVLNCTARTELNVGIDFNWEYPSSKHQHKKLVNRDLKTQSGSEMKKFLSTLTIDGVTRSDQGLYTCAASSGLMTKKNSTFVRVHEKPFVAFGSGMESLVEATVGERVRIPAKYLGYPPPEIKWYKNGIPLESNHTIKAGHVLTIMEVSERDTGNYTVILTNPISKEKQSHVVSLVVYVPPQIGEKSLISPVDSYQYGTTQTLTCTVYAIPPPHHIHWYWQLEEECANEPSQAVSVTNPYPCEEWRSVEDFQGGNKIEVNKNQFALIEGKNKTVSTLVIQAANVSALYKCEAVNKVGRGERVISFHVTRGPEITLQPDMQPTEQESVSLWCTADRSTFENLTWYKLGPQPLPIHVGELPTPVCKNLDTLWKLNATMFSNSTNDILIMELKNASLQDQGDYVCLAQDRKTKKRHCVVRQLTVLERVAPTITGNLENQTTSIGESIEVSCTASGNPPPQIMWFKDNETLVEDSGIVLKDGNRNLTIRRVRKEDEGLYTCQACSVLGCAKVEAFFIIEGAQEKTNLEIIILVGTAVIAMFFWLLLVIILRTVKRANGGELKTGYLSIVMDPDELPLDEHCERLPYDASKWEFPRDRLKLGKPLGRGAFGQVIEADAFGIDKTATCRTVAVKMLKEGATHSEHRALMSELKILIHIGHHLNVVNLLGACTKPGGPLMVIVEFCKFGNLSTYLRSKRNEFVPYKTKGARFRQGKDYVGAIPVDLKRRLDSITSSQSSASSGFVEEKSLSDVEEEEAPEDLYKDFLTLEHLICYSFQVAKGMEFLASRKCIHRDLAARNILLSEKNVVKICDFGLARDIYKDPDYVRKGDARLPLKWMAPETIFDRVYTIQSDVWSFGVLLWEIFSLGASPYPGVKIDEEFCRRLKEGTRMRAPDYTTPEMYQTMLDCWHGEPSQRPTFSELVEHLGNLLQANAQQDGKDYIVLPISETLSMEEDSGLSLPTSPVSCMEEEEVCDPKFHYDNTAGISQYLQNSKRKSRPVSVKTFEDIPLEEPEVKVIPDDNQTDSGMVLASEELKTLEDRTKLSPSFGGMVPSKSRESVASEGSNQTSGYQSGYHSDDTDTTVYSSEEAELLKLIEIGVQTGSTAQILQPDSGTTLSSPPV

Ki (Carbonic anhydrase 2) [nM] | Ki (Carbonic anhydrase 1) [nM] | IC50 [1] [nM] | IC50 [2] [nM] | IC50 (HepG2) [nM] | Compound
230 | > 10000 |  |  |  | COc1cccc(-n2nc(NC(=O)Nc3ccc(C)c(S(N)(=O)=O)c3)nc2-c2ccccc2)c1
13.6 |  |  |  |  | COc1cccc(-n2nc(NC(=O)Nc3ccc(S(N)(=O)=O)cc3)nc2-c2ccccc2)c1
170 | > 10000 |  |  |  | Cc1ccc(NC(=O)Nc2nc(-c3ccccc3)n(-c3ccc(F)cc3)n2)cc1S(N)(=O)=O
16.4 | 153 |  |  |  | COc1ccc(-n2nc(NC(=O)NCCc3ccc(S(N)(=O)=O)cc3)nc2-c2ccccc2)cc1OC
91.4 | > 10000 | 96.2 |  |  | Cc1ccc(NC(=O)Nc2nc(-c3ccccc3)n(-c3cccc(Cl)c3)n2)cc1S(N)(=O)=O
25.2 | 2250 |  |  |  | NS(=O)(=O)c1ccc(NC(=O)Nc2nc(-c3ccccc3)n(-c3ccc(F)cc3)n2)cc1
41.7 |  |  |  |  | NS(=O)(=O)c1ccc(CCNC(=O)Nc2nc(-c3ccccc3)n(-c3ccc(Cl)cc3)n2)cc1
91.5 | 9430 |  |  |  | COc1cccc(-n2nc(NC(=O)Nc3cccc(S(N)(=O)=O)c3)nc2-c2ccccc2)c1
 | 82.7 |  |  |  | COc1ccc(-n2nc(NC(=O)NCCc3ccc(S(N)(=O)=O)cc3)nc2-c2ccccc2)cc1
 | 2690 | > 1000 |  |  | NS(=O)(=O)c1ccc(NC(=O)Nc2nc(-c3ccccc3)n(-c3cccc(Cl)c3)n2)cc1
241 | > 10000 | 271 |  |  | NS(=O)(=O)c1ccccc1NC(=O)Nc1nc(-c2ccccc2)n(-c2ccc(Cl)cc2)n1
384 | > 10000 |  |  |  | NS(=O)(=O)c1ccccc1NC(=O)Nc1nc(-c2ccccc2)n(-c2ccc(F)cc2)n1
3.4 | 39.8 |  |  |  | NS(=O)(=O)c1ccc(CCNC(=O)Nc2nc(-c3ccccc3)n(-c3ccc(F)cc3)n2)cc1
99 | 4900 |  |  |  | NS(=O)(=O)c1cccc(NC(=O)Nc2nc(-c3ccccc3)n(-c3ccc(F)cc3)n2)c1
112 | > 10000 |  |  |  | COc1ccc(-n2nc(NC(=O)Nc3ccccc3S(N)(=O)=O)nc2-c2ccccc2)cc1OC
127 | > 10000 | 541 |  |  | Cc1ccc(NC(=O)Nc2nc(-c3ccccc3)n(-c3ccc(Cl)cc3)n2)cc1S(N)(=O)=O

Ki (Carbonic anhydrase 2) [nM] | Ki (Carbonic anhydrase 1) [nM] | IC50 [1] [nM] | IC50 [2] [nM] | IC50 (HepG2) [nM] | Compound
158 | > 10000 |  |  |  | COc1cccc(-n2nc(NC(=O)Nc3ccccc3S(N)(=O)=O)nc2-c2ccccc2)c1
35.8 | 104 |  |  |  | COc1cccc(-n2nc(NC(=O)NCCc3ccc(S(N)(=O)=O)cc3)nc2-c2ccccc2)c1
29.4 | 3870 |  |  |  | COc1ccc(-n2nc(NC(=O)Nc3ccc(S(N)(=O)=O)cc3)nc2-c2ccccc2)cc1
84.6 |  | 318 |  |  | NS(=O)(=O)c1ccc(NC(=O)Nc2nc(-c3ccccc3)n(-c3ccc(Cl)cc3)n2)cc1
 | 8260 |  |  |  | NS(=O)(=O)c1cccc(NC(=O)Nc2nc(-c3ccccc3)n(-c3ccc(Cl)cc3)n2)c1
56 | 4190 | 183 |  |  | COc1ccc(-n2nc(NC(=O)Nc3cccc(S(N)(=O)=O)c3)nc2-c2ccccc2)cc1
72.4 |  | 717 |  |  | COc1ccc(-n2nc(NC(=O)Nc3ccc(C)c(S(N)(=O)=O)c3)nc2-c2ccccc2)cc1
285 | > 10000 |  |  |  | COc1ccc(-n2nc(NC(=O)Nc3cccc(S(N)(=O)=O)c3)nc2-c2ccccc2)cc1OC
 | > 10000 |  |  |  | NS(=O)(=O)c1ccccc1NC(=O)Nc1nc(-c2ccccc2)n(-c2cccc(Cl)c2)n1
547 |  |  |  |  | COc1ccc(-n2nc(NC(=O)Nc3ccc(C)c(S(N)(=O)=O)c3)nc2-c2ccccc2)cc1OC
20.1 | 61.8 |  |  |  | NS(=O)(=O)c1ccc(CCNC(=O)Nc2nc(-c3ccccc3)n(-c3cccc(Cl)c3)n2)cc1
 |  |  | 19.8 | 240 | COc1cc(-c2nc(C(=O)Nc3ccccc3)nn2-c2ccc(F)c(Cl)c2)cc(OC)c1OC
16.9 |  |  |  |  | COc1ccc(-n2nc(NC(=O)Nc3ccc(S(N)(=O)=O)cc3)nc2-c2ccccc2)cc1OC
158 | > 10000 |  |  |  | COc1ccc(-n2nc(NC(=O)Nc3ccccc3S(N)(=O)=O)nc2-c2ccccc2)cc1
101 | 5820 |  |  |  | NS(=O)(=O)c1cccc(NC(=O)Nc2nc(-c3ccccc3)n(-c3cccc(Cl)c3)n2)c1
